Experimental data published in patent US20220280507A1, “USES OF 5-METHYLTETRAHYDROFOLATE AND ITS COMPOSITION” (Lianyungang Jinkang Hexin Pharmaceutical Co., Ltd., priority 2019, published 2022).
Read-outs that look alike come from different tables or passages of the source.

Experiments:
[1] = system: alcoholic steatohepatitis; conditions: 4 mg·Kg−1 daily
Method: Experiment 12 Effect of 5-Methyltetrahydrofolate on Intestine Induced by Chronic Alcohol
(§1) 96 SPF-grade SD rats, half female and half male, were chosen with an average weight of 176-220 g at the beginning of the experiment, and randomly divided into vehicle control group (glucose, 10 g·Kg−1) and model control group (liquor, 6 g·Kg−1), 5-methyltetrahydrofolate calcium group (folic acid, 4 mg·Kg−1, glucose, 10 g·Kg−1), half female and half, 16 rats in each group. […] The day on which the dose of alcohol reached 6g·Kg−1 was defined as the first day of modeling. The intestinal permeability of rats was measured at Weeks 2 and 8, then 5 rats were sacrificed at random, blood and liver tissues were taken.
8 weeks later, rats in the remaining groups received fecal microbiota transplantation from patients with alcoholic steatohepatitis, and were sacrificed at Week 10, then blood and liver tissues were taken.
60 g of stools were collected from patients with alcoholic steatohepatitis, mixed with 300 mL of normal saline and filtered, and the bacteria solution was stored in an anaerobic bag at 4° C. for later use. After 8 weeks, the remaining rats in all groups were anesthetized with ether, and catheter was used to slowly inject the bacteria solution (2 mL) into their colon, and the rats continued to be fed with the same doses the next day. At Week 10, all rats were sacrificed, liver tissues were stained with H&E and sectioned for disease assessment. At least three different sections of each rat were studied to reasonably assess liver lesions. In order to reasonably assess fatty degeneration, necrosis, inflammation, and fibrosis of liver, liver lesions were graded into different degrees. The proportion of fatty liver cells was <50%, 50-75% and >75%, respectively, corresponding to the severity of fatty degeneration. Focal necrosis was also quantified (number of necrotic foci/mm2), and dense inflammatory infiltrates were also graded. Alcoholic steatohepatitis (ASH) is defined as the presence of inflammatory cell infiltration, spot necrosis and stem cell necrosis in the liver.

[2] = system: intestinal barrier function; conditions: chronic alcohol-fed rats, 4 mg·Kg−1
Method: as §1
An oral sugar test was carried out to evaluate intestinal permeability. After fasting for 8 h, the rats were given 2.0 ml of sugar solution,
with lactulose (107 mg/kg), mannitol (30 mg/kg), sucralose (15 mg/kg) and sucrose (570 mg/kg). The rats were individually housed in metabolic cages, and urine was collected. The sugar concentration in the urine was determined by gas chromatography. Blood samples were used to analyze endotoxin in serum with Kinetic-QLC kit.

[3] = system: TNF-α; assay: Alcoholic fatty liver model, TNF-α in hippocampus tissue (ELISA); format: in vivo, SD rats; conditions: liquor model, n=16
Method: According to their weight, they were randomly divided into vehicle control group (purified water, ig), model control group (liquor, 10 ml·Kg−1), positive control group (bicyclol, 50 mg·Kg−1, ig), folic acid calcium salt high-dose group (4 mg·Kg−1), folic acid calcium salt medium-dose group (2 mg·Kg−1), folic acid calcium salt low-dose group (1 mg·Kg−1), in half female and half male, and 16 rats in each group. Purified water was used as a negative control, and bicyclol (place of origin: Beijing Xiehe Pharmaceutical Factory, specification: 25 mg/tablet, batch number: H20040467) was used as a positive control drug. Route of administration: all were administered by oral gavage. Dosage of administration: 1 mg·Kg−1, 2 mg·Kg−1, and 4 mg·Kg−1. Frequency of administration: once a day for 60 consecutive days.
Method of administration: administration started at prescribed doses on the day of modeling for 60 consecutive days and ended at the 60th day. At the same time, rats in each group were weighed every other week during administration period to monitor their body weight changes. On the 61st day, rats were dissected and serum was collected for determination of triglyceride (TG), total cholesterol (TC), malondialdehyde (MDA), superoxide dismutase (SOD) and liver histopathologic examination. The brain tissue of rats was taken out, and hippocampus tissue was separated on ice plate, prepared to homogenate with a mass fraction of 10% with purified water, then the homogenate was centrifuged to obtain supernatant. ELISA was used to detect the levels of inflammatory factors TNF-α and IL-1β in hippocampus tissue with continuous spectrum scanning microplate reader.

[4] = Week 10 after fecal microbiota transplantation, n = 6

## CN1c2c([nH]c(N)nc2=O)NCC1CNc1ccc(C(=O)N[C@@H](CCC(=O)O)C(=O)O)cc1 (stereo partly drawn) [5-methyltetrahydrofolate, N-[4-[[(2-amino-1,4,5,6,7,8-hexahydro-4-oxo-5-methyl-(6S), -(6R), and (6R,S)-pteridyl)methyl)amino)toluoyl-glutamic acid]
[1]; Week 8, n = 5
  Case percentage: fatty degeneration, percentage of fatty liver cells 50-75%: 20%
  Case percentage: fatty degeneration, percentage of fatty liver cells < 50%: 80%
  Case percentage: fatty degeneration, percentage of fatty liver cells > 75%: 0%
  Case percentage: inflammatory foci 1-4 pcs/mm^2: 0%
  Case percentage: inflammatory foci <1 pc/mm^2: 100%
  Case percentage: inflammatory foci >4 pcs/mm^2: 0%
  Case percentage: liver fibrosis: 0%
  Case percentage: necrosis foci 1-3 pcs/mm^2: 0%
  Case percentage: necrosis foci <1 pc/mm^2: 100%
  Case percentage: necrosis foci >3 pcs/mm^2: 0%
[1]; [4]
  Case percentage: fatty degeneration, percentage of fatty liver cells 50-75%: 33.3%
  Case percentage: fatty degeneration, percentage of fatty liver cells < 50%: 66.7%
  Case percentage: fatty degeneration, percentage of fatty liver cells > 75%: 0%
  Case percentage: inflammatory foci 1-4 pcs/mm^2: 0%
  Case percentage: inflammatory foci <1 pc/mm^2: 100%
  Case percentage: inflammatory foci >4 pcs/mm^2: 0%
  Case percentage: liver fibrosis: 0%
  Case percentage: necrosis foci 1-3 pcs/mm^2: 0%
  Case percentage: necrosis foci <1 pc/mm^2: 100%
  Case percentage: necrosis foci >3 pcs/mm^2: 0%
[2]
  Intestinal barrier function: can improve intestinal barrier function in the presence of alcohol
  Serum endotoxin level: reduce serum endotoxin level

## 5-methyltetrahydrofolate calcium
[3]; 1 mg·kg−1·d−1 ig 60 d
  TNF-α in hippocampus tissue: 250.39 ± 32.40 μg · g^−1 prot
[3]; 2 mg·kg−1·d−1 ig 60 d
  TNF-α in hippocampus tissue: 241.32 ± 29.32 μg · g^−1 prot
[3]; 4 mg·kg−1·d−1 ig 60 d
  TNF-α in hippocampus tissue: 220.43 ± 24.34 μg · g^−1 prot
